Twelve compounds from patent US9586962B2, “Disubstituted octahydropyrrolo [3,4-C] pyrroles as orexin receptor modulators” (Janssen Pharmaceutica NV, priority 2011, dated 2017) can be followed below.

This assay concerns the target human orexin 2 receptor (Homo sapiens (Human), UniProt O43614). Put plainly: Human orexin 2 receptor radioligand binding ([3H]EMPA competition, HEK293 cells). As to conditions: HEK293 cells expressing human orexin-2 receptor, read-out: OR 2 Ki.

human orexin 2 receptor, sequence (O43614 whole entry): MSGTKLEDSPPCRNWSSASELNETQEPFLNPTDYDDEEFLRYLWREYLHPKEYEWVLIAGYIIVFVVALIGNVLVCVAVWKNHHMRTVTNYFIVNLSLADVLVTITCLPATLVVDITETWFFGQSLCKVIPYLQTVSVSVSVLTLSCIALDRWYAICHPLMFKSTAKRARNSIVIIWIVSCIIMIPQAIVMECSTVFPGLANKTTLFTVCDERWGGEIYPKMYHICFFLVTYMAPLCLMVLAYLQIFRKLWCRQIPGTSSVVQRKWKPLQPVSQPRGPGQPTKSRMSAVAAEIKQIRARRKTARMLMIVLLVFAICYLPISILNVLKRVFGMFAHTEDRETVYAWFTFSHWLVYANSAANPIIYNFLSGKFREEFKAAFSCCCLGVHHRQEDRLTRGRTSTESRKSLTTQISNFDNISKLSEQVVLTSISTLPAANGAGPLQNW

Turning to `Cc1cc(C)nc(N2CC3CN(C(=O)c4c(F)cccc4-c4[nH]ncc4C(F)(F)F)CC3C2)n1` (stereo not drawn) [Example 478, 2-(4,6-Dimethylpyrimidin-2-yl)-5-({2-fluoro-6-[4-(trifluoromethyl)-1H-pyrazol-5-yl]phenyl}carbonyl)octahydropyrrolo[3,4-c]pyrrole], the Ki – broadly, the dissociation constant of the complex between target and ligand, obtained from inhibition or displacement – came to 49 nM.

Regarding `COc1ncc(-c2cccc(F)c2C(=O)N2CC3CN(c4nc(C)cc(C)n4)CC3C2)s1` (stereo not drawn) [Example 479, 2-(4,6-Dimethylpyrimidin-2-yl)-5-{[2-fluoro-6-(2-methoxy-1,3-thiazol-5-yl)phenyl]carbonyl}octahydropyrrolo[3,4-c]pyrrole], the Ki came to 524 nM.

Consider `Cc1cc(C)nc(N2CC3CN(C(=O)c4c(F)cccc4C4=CC(=O)OC4)CC3C2)n1` (stereo not drawn) [Example 480, 4-(2-{[5-(4,6-Dimethylpyrimidin-2-yl)hexahydropyrrolo[3,4-c]pyrrol-2(1H)-yl]carbonyl}-3-fluorophenyl)furan-2(5H)-one], for which the Ki worked out at 3810 nM.

As for `Cc1cc(C)nc(N2CC3CN(C(=O)c4c(F)cccc4-c4ncccc4F)CC3C2)n1` (stereo not drawn) [Example 481, 2-(4,6-Dimethylpyrimidin-2-yl)-5-{[2-fluoro-6-(3-fluoropyridin-2-yl)phenyl]carbonyl}octahydropyrrolo[3,4-c]pyrrole], the inhibition constant (Ki) was determined as 24 nM.

Consider `Cc1cc(C)nc(N2CC3CN(C(=O)c4c(F)cccc4-c4cn(C)cn4)CC3C2)n1` (stereo not drawn) [Example 482, 2-(4,6-Dimethylpyrimidin-2-yl)-5-{[2-fluoro-6-(1-methyl-1H-imidazol-4-yl)phenyl]carbonyl}octahydropyrrolo[3,4-c]pyrrole], for which the Ki was determined as 30 nM.

In the case of `COc1ccnc(-c2cccc(F)c2C(=O)N2CC3CN(c4nc(C)cc(C)n4)CC3C2)n1` (stereo not drawn) [Example 483, 2-(4,6-Dimethylpyrimidin-2-yl)-5-{[2-fluoro-6-(4-methoxypyrimidin-2-yl)phenyl]carbonyl}octahydropyrrolo[3,4-c]pyrrole], the Ki came to 11 nM.

For `Cc1cc(C)nc(N2CC3CN(C(=O)c4c(F)cccc4-c4ccc(Cl)cn4)CC3C2)n1` (stereo not drawn) [Example 484, 2-{[2-(5-Chloropyridin-2-yl)-6-fluorophenyl]carbonyl}-5-(4,6-dimethylpyrimidin-2-yl)octahydropyrrolo[3,4-c]pyrrole], the Ki stood at 230 nM.

For `CSc1nccc(-c2cccc(F)c2C(=O)N2CC3CN(c4nc(C)cc(C)n4)CC3C2)n1` (stereo not drawn) [Example 485, 2-(4,6-Dimethylpyrimidin-2-yl)-5-({2-fluoro-6-[2-(methylsulfanyl)pyrimidin-4-yl]phenyl}carbonyl)octahydropyrrolo[3,4-c]pyrrole], the Ki is 84 nM.

Take `Cc1cc(C)nc(N2CC3CN(C(=O)c4c(F)cccc4-c4cscn4)CC3C2)n1` (stereo not drawn) [Example 486, 2-(4,6-Dimethylpyrimidin-2-yl)-5-{[2-fluoro-6-(1,3-thiazol-4-yl)phenyl]carbonyl}octahydropyrrolo[3,4-c]pyrrole]: the Ki was 15 nM.

For the compound `Cc1cc(C)nc(N2CC3CN(C(=O)c4c(F)cccc4-c4cncs4)CC3C2)n1` (stereo not drawn) [Example 487, 2-(4,6-Dimethylpyrimidin-2-yl)-5-{[2-fluoro-6-(1,3-thiazol-5-yl)phenyl]carbonyl}octahydropyrrolo[3,4-c]pyrrole], the Ki is 54 nM.

For the compound `Cc1cc(C)nc(N2CC3CN(C(=O)c4c(F)cccc4-c4ccnnc4)CC3C2)n1` (stereo not drawn) [Example 488, 2-(4,6-Dimethylpyrimidin-2-yl)-5-[(2-fluoro-6-pyridazin-4-ylphenyl)carbonyl]octahydropyrrolo[3,4-c]pyrrole], the inhibitory constant (Ki) came to 10000 nM.

Regarding `Cc1ccnc(-c2cccc(F)c2C(=O)N2CC3CN(c4nc(C)cc(C)n4)CC3C2)c1` (stereo not drawn) [Example 489, 2-(4,6-Dimethylpyrimidin-2-yl)-5-{[2-fluoro-6-(4-methylpyridin-2-yl)phenyl]carbonyl}octahydropyrrolo[3,4-c]pyrrole], the Ki came out at 45 nM.
